# Reference: article PMC2746281 (PLoS ONE, 2009)
# Columns and labels:
# Btk = molecular target: T1, Btk (Homo sapiens, UniProt Q06187); assay: Recombinant kinase ELISA assay, Btk; type: biochemical; details: recombinant human enzyme; ELISA-based assay, poly(Glu,Tyr 4:1) substrate
# T1 construct: Btk (2–659; BC109079); 6xHN (N); made in house; host or cells: baculovirus, Sf9 insect cells
# Experimental: (§1) Full details for the generation of recombinant human KIT intracellular domain and other protein kinases (including Lyn, platelet derived growth factor receptor β, epidermal growth factor receptor, fibroblast growth factor receptor 1, Src, HCK, PYK, FES, Btk, Bmx, c-Ret, c-Fms, Syk, and c-Met) are provided in the Supplemental Methods (see Supporting Information; Methods S1). Experiments on ABL1, Akt1, protein kinase C-α, insulin-like growth factor receptor 1, and Pim1 were carried out by Proqinase (Germany). All other recombinant protein kinases were performed in-house using an enzyme-linked immunoassay; experimental details are provided in the Supplemental Methods (see Supporting Information; Methods S1).
# (§2) The sequences encoding PDGF receptor β (residues 554–1106; GenBank accession no. BC032224), Lyn B (2–583; accession no. BC059394), fibroblast growth factor receptor 1 (572–959; accession no. BC018128), Src (2–536; accession no. BC011566), Btk (2–659; accession no. BC109079), Bmx (2–675; accession no. BC016652), c-Ret (713–1114; accession no. BC004257), c-Fms (538–972; BC047531), Syk (2–612; BC011399), Hck (2-526; accession no. BC014435), Fes (2-822; accession no. BC035357), PYK2 (2-1006; accession no. BC042599) and c-Met (949–1398; accession no. lifeseq3489592) were amplified by PCR from IMAGE cDNA clones purchased from Openbiosystems. […]
# c-Fms [1] = molecular target: T2, c-Fms (Homo sapiens, UniProt P07333); assay: Recombinant kinase ELISA assay, c-Fms; type: biochemical; details: recombinant human enzyme; ELISA-based assay, poly(Glu,Tyr 4:1) substrate
# T2 construct: c-Fms (538–972; BC047531); 6xHN (N); made in house; host or cells: baculovirus, Sf9 insect cells
# Experimental: as §1, §2
# T2 sequence (P07333 538-972): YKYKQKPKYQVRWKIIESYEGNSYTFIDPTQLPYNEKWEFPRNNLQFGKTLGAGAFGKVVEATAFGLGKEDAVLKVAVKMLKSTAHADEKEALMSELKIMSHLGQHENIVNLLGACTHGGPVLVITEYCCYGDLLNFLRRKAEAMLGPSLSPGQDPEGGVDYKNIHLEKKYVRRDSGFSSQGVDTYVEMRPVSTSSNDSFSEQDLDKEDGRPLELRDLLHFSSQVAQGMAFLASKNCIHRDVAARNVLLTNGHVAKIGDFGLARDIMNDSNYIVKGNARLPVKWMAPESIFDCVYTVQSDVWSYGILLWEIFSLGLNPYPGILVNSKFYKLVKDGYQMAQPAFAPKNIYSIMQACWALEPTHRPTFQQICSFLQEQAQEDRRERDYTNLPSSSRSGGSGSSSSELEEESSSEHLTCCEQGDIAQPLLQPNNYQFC
# c-Ret = molecular target: T3, c-Ret (Homo sapiens, UniProt P07949); assay: Ba/F3 cell proliferation (WST-1), c-Ret; details: Ba/F3 cells expressing the enzyme, read-out: Cell-based assay IC50, c-Ret
# T3 construct: expressed in transfected cells; host or cells: Ba/F3 (general description; not repeated for this kinase)
# [2] = test system: murine bone marrow mast cell (BMMC); assay: Transwell migration of BMMC in response to rmSCF; type: cell-based; details: Mus musculus, 4 hours, read-out: inhibition of migration of SCF-stimulated BMMCs relative to the control
# Experimental: Migration of murine BMMCs was evaluated using a transwell migration assay [35]. […] Filters were then placed in wells containing 600 µL of chemotaxis buffer supplemented with or without 10 ng/mL of rmSCF, for stimulated or unstimulated BMMCs, respectively. After 4 hours incubation at 37°C in 5% CO2, cells from the bottom chamber were resuspended and counted using a FACS Scan over 20 seconds. All assays were performed in triplicate and counts were repeated twice for each well. For tyrosine kinase inhibitor treatment, 1×10^7 mast cells were pretreated for 1.5 hours at 37°C in complete medium (OPTI MEM, 10% foetal calf serum (FCS), 1% antibiotics and 2-mercaptoethanol 5×10^−5 M, 10 ng/ml rIL3) either with 1 µM of inhibitor or an equivalent volume of DMSO.
# HMC-1α155 cells = assay: Mastocytoma cell line proliferation (WST-1), HMC-1α155; type: cell-based; details: Homo sapiens, 48 h; 2 days; KIT juxtamembrane mutation
# Experimental: (B) western blotting analysis of HMC-1α155 tyrosine phosphorylation. […] (D) Western blotting analysis of BMMC tyrosine phosphorylation. Cell proliferation was assessed by WST-1 colorimetric assay. […] MW = molecular weight.
# [3] = molecular target: T4, Insulin-like growth factor-I receptor (Homo sapiens, UniProt P08069); assay: Recombinant kinase screen (Proqinase), IGF-I receptor; type: biochemical; details: recombinant human enzyme; single experiment, kinase screen by Proqinase
# Experimental: as §1
# Flt3 [4] = molecular target: T5, Flt3 (Homo sapiens, UniProt P36888); assay: Ba/F3 cell proliferation (WST-1), Flt3; details: Ba/F3 cells expressing the enzyme, read-out: Cell-based assay IC50, Flt3
# c-Fms [5] = molecular target: T6, c-Fms (Homo sapiens, UniProt P07333); assay: Ba/F3 cell proliferation (WST-1), c-Fms; details: Ba/F3 cells expressing the enzyme, read-out: Cell-based assay IC50, c-Fms
# T6 construct: expressed in transfected cells; host or cells: Ba/F3 (general description; not repeated for this kinase)
# T6 sequence (P07333 20-972): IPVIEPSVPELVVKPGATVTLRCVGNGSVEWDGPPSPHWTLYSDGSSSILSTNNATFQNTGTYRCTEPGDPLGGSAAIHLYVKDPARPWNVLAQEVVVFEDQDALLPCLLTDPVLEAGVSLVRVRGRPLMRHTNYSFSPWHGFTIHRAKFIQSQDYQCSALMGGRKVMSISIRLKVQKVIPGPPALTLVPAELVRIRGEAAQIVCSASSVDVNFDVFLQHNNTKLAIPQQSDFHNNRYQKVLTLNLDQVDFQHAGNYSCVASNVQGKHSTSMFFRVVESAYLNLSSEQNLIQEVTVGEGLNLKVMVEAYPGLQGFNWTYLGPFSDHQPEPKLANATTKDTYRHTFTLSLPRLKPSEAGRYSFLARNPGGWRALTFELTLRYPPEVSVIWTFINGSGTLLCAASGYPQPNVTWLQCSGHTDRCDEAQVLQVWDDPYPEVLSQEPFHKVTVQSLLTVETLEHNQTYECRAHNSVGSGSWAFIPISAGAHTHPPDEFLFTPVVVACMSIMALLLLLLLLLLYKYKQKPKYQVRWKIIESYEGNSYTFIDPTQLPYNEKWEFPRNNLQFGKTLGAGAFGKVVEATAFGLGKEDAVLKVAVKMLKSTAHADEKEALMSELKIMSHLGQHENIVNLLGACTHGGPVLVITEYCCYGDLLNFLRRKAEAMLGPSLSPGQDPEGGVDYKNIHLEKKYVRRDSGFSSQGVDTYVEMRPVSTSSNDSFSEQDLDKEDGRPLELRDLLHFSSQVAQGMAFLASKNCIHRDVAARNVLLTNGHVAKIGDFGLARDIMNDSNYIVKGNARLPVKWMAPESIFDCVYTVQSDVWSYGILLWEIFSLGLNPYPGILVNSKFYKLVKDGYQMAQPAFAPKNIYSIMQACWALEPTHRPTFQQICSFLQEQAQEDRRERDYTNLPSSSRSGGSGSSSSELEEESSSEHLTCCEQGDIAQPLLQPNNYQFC
# [6] = test system: Salmonella typhimurium and Escherichia coli; assay: Bacterial reverse mutation test; details: our unpublished results
# Tyk2 = molecular target: T7, Tyk2 (Homo sapiens, UniProt P29597); assay: Ba/F3 cell proliferation (WST-1), Tyk2; details: Ba/F3 cells expressing the enzyme, read-out: Cell-based assay IC50, Tyk2
# T7 construct: expressed in transfected cells; host or cells: Ba/F3
# CBMC = CBMC cell viability; type: cell-based, human; details: incubation of CBMC for up to 9 hours
# Flt3 [7] = molecular target: T5, Flt3; assay: Recombinant kinase ELISA assay, Flt3; type: biochemical; details: recombinant human enzyme; ELISA-based assay, poly(Glu,Tyr 4:1) substrate
# Experimental: as §1
# [8] = test system: mastocytoma cell lines carrying KIT juxtamembrane mutants; assay: Proliferation of mastocytoma cell lines carrying KIT juxtamembrane mutants (summary); type: cell-based; details: summary over cell lines
# [9] = molecular target: T4, Insulin-like growth factor-I receptor; assay: Ba/F3 cell proliferation (WST-1), IGF-I receptor; set-up: expressed in transfected cells; host or cells: Ba/F3 (general description; not repeated for this kinase); details: Ba/F3 cells expressing the enzyme, read-out: Cell-based assay IC50, Insulin-like growth factor-I receptor
# KIT Δ27 (murine) = molecular target: T8, KIT Δ27 (murine) (Mus musculus, UniProt P05532, DEL551-559); assay: Ba/F3 cell proliferation (WST-1), KIT Δ27; details: Ba/F3 cells expressing the enzyme, read-out: Cell-based assay IC50, KIT Δ27 (murine)
# T8 construct: expressed in transfected cells; host or cells: Ba/F3
# T8 sequence (P05532 with tags, fused parts or gaps isoform P05532-2 DEL547-555): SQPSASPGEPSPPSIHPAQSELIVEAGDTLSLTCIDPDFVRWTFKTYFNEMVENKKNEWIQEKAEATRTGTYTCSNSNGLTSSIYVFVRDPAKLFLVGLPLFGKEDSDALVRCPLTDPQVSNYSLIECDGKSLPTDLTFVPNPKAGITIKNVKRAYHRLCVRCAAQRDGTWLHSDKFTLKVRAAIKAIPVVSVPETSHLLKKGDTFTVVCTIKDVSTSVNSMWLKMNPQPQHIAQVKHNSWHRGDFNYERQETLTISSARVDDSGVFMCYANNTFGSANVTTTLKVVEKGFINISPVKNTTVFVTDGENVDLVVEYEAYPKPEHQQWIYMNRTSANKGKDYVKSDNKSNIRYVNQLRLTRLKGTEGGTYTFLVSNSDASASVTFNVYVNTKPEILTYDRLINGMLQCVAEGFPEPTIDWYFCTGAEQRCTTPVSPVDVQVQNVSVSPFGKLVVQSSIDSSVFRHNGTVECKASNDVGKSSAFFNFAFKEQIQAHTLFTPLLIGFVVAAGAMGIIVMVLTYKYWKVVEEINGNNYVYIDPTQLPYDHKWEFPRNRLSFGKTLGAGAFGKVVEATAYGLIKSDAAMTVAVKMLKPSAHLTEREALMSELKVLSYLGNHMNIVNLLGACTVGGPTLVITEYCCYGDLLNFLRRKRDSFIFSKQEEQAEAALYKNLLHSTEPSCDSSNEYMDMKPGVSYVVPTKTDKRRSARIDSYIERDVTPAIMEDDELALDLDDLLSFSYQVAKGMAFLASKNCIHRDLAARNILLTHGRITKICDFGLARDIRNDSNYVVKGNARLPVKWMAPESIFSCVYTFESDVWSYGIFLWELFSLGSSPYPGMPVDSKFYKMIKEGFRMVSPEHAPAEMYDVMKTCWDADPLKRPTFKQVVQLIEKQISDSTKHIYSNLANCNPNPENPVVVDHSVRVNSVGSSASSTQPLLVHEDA
# T5 sequence (P36888 27-993): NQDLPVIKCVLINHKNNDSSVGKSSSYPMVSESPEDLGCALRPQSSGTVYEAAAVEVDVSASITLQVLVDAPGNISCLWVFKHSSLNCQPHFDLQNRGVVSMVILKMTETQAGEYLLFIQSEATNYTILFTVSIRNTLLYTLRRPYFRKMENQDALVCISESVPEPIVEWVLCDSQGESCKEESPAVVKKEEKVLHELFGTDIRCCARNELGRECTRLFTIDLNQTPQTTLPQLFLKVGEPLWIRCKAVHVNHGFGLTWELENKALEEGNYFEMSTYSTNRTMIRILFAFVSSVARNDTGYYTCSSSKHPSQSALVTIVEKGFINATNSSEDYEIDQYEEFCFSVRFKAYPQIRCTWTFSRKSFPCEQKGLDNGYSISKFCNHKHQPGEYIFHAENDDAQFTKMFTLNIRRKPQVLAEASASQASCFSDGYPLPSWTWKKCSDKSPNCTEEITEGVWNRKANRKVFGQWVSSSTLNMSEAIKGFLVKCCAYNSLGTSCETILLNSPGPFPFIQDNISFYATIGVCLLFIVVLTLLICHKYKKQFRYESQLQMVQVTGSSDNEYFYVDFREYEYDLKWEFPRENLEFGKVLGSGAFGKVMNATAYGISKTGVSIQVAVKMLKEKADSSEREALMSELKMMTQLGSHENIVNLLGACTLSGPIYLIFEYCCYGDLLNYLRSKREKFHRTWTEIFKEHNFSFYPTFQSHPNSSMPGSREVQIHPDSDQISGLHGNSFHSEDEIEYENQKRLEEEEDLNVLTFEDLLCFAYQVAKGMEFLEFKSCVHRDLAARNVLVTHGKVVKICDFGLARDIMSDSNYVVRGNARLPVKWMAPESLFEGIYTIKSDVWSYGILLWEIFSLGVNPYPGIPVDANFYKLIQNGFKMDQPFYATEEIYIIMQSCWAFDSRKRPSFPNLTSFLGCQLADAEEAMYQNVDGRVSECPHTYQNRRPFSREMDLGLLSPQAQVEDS
# T4 sequence (P08069 31-1367): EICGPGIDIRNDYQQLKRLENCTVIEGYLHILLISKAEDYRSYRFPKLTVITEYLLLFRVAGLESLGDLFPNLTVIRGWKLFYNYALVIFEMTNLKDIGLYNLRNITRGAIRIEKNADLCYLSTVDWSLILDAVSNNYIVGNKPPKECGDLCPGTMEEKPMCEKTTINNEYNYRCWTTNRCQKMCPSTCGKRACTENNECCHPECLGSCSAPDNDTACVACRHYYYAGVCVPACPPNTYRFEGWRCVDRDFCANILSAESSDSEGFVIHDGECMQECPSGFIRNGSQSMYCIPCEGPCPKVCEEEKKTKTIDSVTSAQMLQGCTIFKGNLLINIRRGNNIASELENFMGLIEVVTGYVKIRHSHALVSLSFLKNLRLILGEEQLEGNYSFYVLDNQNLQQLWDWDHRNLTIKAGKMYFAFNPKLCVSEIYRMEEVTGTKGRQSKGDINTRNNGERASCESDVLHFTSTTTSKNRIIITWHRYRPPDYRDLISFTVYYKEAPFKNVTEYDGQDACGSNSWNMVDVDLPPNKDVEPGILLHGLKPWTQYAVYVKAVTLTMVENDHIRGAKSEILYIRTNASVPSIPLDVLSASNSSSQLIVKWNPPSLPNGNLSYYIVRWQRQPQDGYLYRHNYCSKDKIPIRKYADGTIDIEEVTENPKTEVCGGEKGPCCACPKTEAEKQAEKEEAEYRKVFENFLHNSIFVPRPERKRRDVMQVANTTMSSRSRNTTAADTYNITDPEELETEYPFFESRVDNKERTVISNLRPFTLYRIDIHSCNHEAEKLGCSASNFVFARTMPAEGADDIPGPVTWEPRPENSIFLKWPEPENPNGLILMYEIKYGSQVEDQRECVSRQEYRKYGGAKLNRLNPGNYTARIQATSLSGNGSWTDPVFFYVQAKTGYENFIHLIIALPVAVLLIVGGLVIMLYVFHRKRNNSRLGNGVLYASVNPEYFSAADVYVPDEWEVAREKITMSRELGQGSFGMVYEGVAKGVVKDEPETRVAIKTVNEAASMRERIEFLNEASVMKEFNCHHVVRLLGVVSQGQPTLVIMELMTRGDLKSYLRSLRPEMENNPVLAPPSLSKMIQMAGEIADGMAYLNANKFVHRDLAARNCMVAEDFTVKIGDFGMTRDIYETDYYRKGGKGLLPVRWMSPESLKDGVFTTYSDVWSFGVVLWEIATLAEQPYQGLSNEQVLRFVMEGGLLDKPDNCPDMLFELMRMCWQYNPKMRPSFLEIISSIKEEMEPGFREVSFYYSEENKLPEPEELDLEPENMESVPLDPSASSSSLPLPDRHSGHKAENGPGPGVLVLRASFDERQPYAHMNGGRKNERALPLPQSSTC
smiles,measurement,setting,value
"CS(=O)(=O)O.CS(=O)(=O)O.Cc1ccc(NC(=O)c2ccc(CN3CCN(C)CC3)cc2)cc1Nc1nc(-c2cccnc2)cs1 [masitinib, 4-(4-methylpiperazin-1-ylmethyl)-N-[4-methyl-3-(4-pyridin-3ylthiazol-2-ylamino)phenyl]benzamide-mesylate methane sulfonic acid salt]",IC50,Btk,> 10 µM
same,IC50,c-Fms [1],1.48 ± 0.54 µM
same,IC50,c-Ret,8 ± 1.2 µM
same,inhibition at 1 µM,[2],~79.6%
same,IC50,HMC-1α155 cells,~0.01 µM
same,IC50,[3],> 10 µM
same,IC50,Flt3 [4],5 ± 2 µM
same,IC50,c-Fms [5],1 ± 0.03 µM
same,mutagenicity in bacterial reverse mutation tests,[6],not mutagenic
same,IC50,Tyk2,9 ± 0.8 µM
same,effect on cell viability,CBMC,no affect on cell viability
same,IC50,Flt3 [7],> 10 µM
same,IC50,[8],0.01 to 0.03 µM
same,IC50,[9],10 ± 0.67 µM
same,IC50,KIT Δ27 (murine),0.005 ± 0.0003 µM
